Reference: patent US7345070B2, “Peroxisome proliferator activated receptor agonists” (Eli Lilly and Company, priority 2000, dated 2008)

What was measured:
HuapoAI transgenic mice = test: Evaluation of triglyceride and cholesterol level in HuapoAI transgenic mice; format: in vivo; conditions: human apoAI transgenic mice; for change in vivo at 30 mg/kg / inhibition in vivo at 30 mg/kg: Mus musculus, 168 h, 30 mg/kg oral gavage daily for 7 days; for change in vivo at 30 mg/kg: FPLC area under the curve, over mice receiving vehicle, read-out: % HDLc Increase; for inhibition in vivo at 30 mg/kg: serum 3 h after dosing, read-out: Reduction in Triglyceride Serum Level
Procedure: After an acclimation period of 2 weeks, animals were individually identified by ear notches, weighed, and assigned to groups based on body weight. Beginning the following morning, mice were dosed daily by oral gavage for 7 days using a 20 gauge, 1½″ curved disposable feeding needle (Popper & Sons). […] Prior to termination on day 7, mice were weighed and dosed. Three hours after dosing, animals were anesthetized by inhalation of isoflurane (2-4%; Abbott Laboratories, Chicago, Ill.) and blood obtained via cardiac puncture (0.7-1.0 ml). Whole blood was transferred to serum separator tubes (Vacutainer SST), chilled on ice, and permitted to clot. Serum was obtained after centrifugation at 4° C. and frozen until analysis for triglycerides, total cholesterol, compound levels, and serum lipoprotein profile by fast protein liquid chromatography (FPLC) coupled to an inline detection system. After sacrifice by cervical dislocation, the liver, heart and epididymal fat pads were excised and weighed.
The absorbance of the dye produced is linearly related to the analyte in the sample. The assays were further modified in our laboratory for use in a 96 well format. […] An additional aliquot of sample, pipetted to a third well and diluted in 200 μl water, provided a blank for each specimen. […] Sample absorbances were compared to a standard curve (100-800, 10-500, and 100-400 mg/dl for glucose, triglycerides and total cholesterol, respectively). […] All samples from an experiment were assayed at the same time to minimize inter-assay variability.
Serum lipoproteins were separated and cholesterol quantitated with an in-line detection system. Sample was applied to a Superose® 6 HR 10/30 size exclusion column (Amersham Pharmacia Biotech) and eluted with phosphate buffered saline-EDTA at 0.5 ml/min. […] The change in voltage corresponding to change in cholesterol concentration was plotted vs time and the area under the curve corresponding to the elution of VLDL, LDL and HDL was calculated using Perkin Elmer Turbochrome software.

db/db mice = test: Evaluation of glucose levels in db/db mice; format: in vivo; conditions: Mus musculus, 168 h, 30 mg/kg oral gavage daily for 7 days, 100% = glucose not different from lean values, read-out: Glucose Normalisation
Procedure: Five week old male diabetic (db/db) mice [C57BlKs/j-m+/+ Lepr(db), Jackson Laboratory, Bar Harbor, Me.] or lean littermates (db+) were housed 6 per cage (10″×20″×8″ with aspen chip bedding) with food (Purina 5015) and water available at all times. After an acclimation period of 2 weeks, animals were individually identified by ear notches, weighed, and bled via the tail vein for determination of initial glucose levels. Blood was collected (100 μl) from unfasted animals by wrapping each mouse in a towel, cutting the tip of the tail with a scalpel, and milking blood from the tail into a heparinized capillary tube (Fisher) balanced on the edge of the bench. Sample was discharged into a heparinized microtainer with gel separator (VWR) and retained on ice. Plasma was obtained after centrifugation at 4° C. and glucose measured immediately. Remaining plasma was frozen until the completion of the experiment, when glucose and triglycerides were assayed in all samples. Animals were grouped based on initial glucose levels and body weights. Beginning the following morning, mice were dosed daily by oral gavage for 7 days using a 20 gauge, 1½″ curved disposable feeding needle. Treatments were test compounds (30 mg/kg), a positive control agent (30 mg/kg) or vehicle [1% carboxymethylcellulose (w/v)/0.25% Tween80 (w/v); 0.3 ml/mouse]. On day 7, mice were weighed and bled (tail vein) 3 hours after dosing. Twenty-four hours after the 7th dose (i.e., day 8), animals were bled again (tail vein). Samples obtained from conscious animals on days 0, 7 and 8 were assayed for glucose. After the 24 hour bleed, animals were weighed and dosed for the final time. Three hours after dosing on day 8, animals were anesthetized by inhalation of isoflurane and blood obtained via cardiac puncture (0.5-0.7 ml). Whole blood was transferred to serum separator tubes, chilled on ice and permitted to clot. Serum was obtained after centrifugation at 4° C. and frozen until analysis for compound levels. After sacrifice by cervical dislocation, the liver, heart and epididymal fat pads were excised and weighed.
The animals dosed with vehicle had average triglycerides values of 170-230 mg/dl, which were reduced by the positive PPARγ control (70-120 mg/dl with a mean reduction of 50%). Male db/db mice were hyperglycemic (average glucose of 680-730 mg/dl on the 7th day of treatment), while lean animals had average glucose levels between 190-230 mg/dl.
Glucose was measured […] using commercially purchased reagents (Sigma #315-500). According to the manufacturers, the procedures were modified from published work (McGowan, M. W., Artiss, J. D., Strandbergh, D. R. & Zak, B. Clin Chem, 20:470-5 (1974) and Keston, A. Specific colorimetric enzymatic analytical reagents for glucose. Abstract of papers 129th Meeting ACS, 31C (1956).); and depend on the release of a mole of hydrogen peroxide for each mole of analyte, coupled with a color reaction first described by Trinder (Trinder, P. Determination of glucose in blood using glucose oxidase with an alternative oxygen acceptor. Ann Clin Biochem, 6:24 (1969)). The absorbance of the dye produced is linearly related to the analyte in the sample. The assays were further modified in our laboratory for use in a 96 well format. Standards (Sigma #339-11, Sigma #16-11, and Sigma #CC0534 for glucose, triglycerides and total cholesterol, respectively), quality control plasma (Sigma # A2034), and samples (2 or 5 μl/well) were measured in duplicate using 200 μl of reagent. An additional aliquot of sample, pipetted to a third well and diluted in 200 μl water, provided a blank for each specimen. Plates were incubated at room temperature (18, 15, and 10 minutes for glucose, triglycerides and total cholesterol, respectively) on a plate shaker (DPC Micormix 5) and absorbance read at 500 nm (glucose and total cholesterol) or 540 nm (triglycerides) on a plate reader (Wallac Victor 1420). […]

huPPARα = test: Cotransfection assay in CV-1 cells, huPPARα; format: cell-based, human; conditions: GAL4 chimeric system, relative to PPARα agonist reference molecule
Procedure: DNA-dependent binding (ABCD binding) was carried out using SPA technology with PPAR receptors. Tritium-labeled PPARα and PPARγ agonists were used as radioligands for generating displacement curves and IC50 values with compounds of the invention. Cotransfection assays were carried out in CV-1 cells. The reporter plasmid contained an acylCoA oxidase (AOX) PPRE and TK promoter upstream of the luciferase reporter cDNA. Appropriate PPARs and RXRα were constitutively expressed using plasmids containing the CMV promoter. […] In order to eliminate such interference, a GAL4 chimeric system was used in which the DNA binding domain of the transfected PPAR was replaced by that of GAL4, and the GAL4 response element was utilized in place of the AOX PPRE. Cotransfection efficacy was determined relative to PPARα agonist and PPARγ agonist reference molecules. Efficacies were determined by computer fit to a concentration-response curve, or in some cases at a single high concentration of agonist (10 μM). For binding or cotransfection studies with receptors other than PPARs, similar assays were carried out using appropriate ligands, receptors, reporter constructs, etc., for that particular receptor.
These studies were carried out to evaluate the ability of compounds of the invention to bind to and/or activate various nuclear transcription factors, particularly huPPARα (“hu” indicates “human”) and huPPARγ. These studies provide in vitro data concerning efficacy and selectivity of compounds of the invention. Furthermore, binding and cotransfection data for compounds of the invention were compared with corresponding data for marketed compounds that act on either huPPARα or huPPARγ.

[1] = 100 mg/kg oral daily 7 days, vs vehicle

| Compound | change in vivo at 30 mg/kg (HuapoAI transgenic mice) [%] | inhibition in vivo at 30 mg/kg (HuapoAI transgenic mice) [%] | inhibition in vivo at 30 mg/kg (db/db mice) [%] | further results |
| --- | --- | --- | --- | --- |
| Cc1oc(-c2ccccc2)nc1CCOc1ccc(CC(C)(Oc2ccccc2)C(=O)O)cc1 (racemic) [Example 1, rac-3-{4-[2-(2-Phenyl-5-methyl-oxazol-4-yl)-ethoxy]-phenyl}-2-methyl-2-phenoxy-propionic acid] | 83 | 41.3 | 95 | – |
| Cc1oc(-c2cccs2)nc1CCOc1ccc(CC(C)(Oc2ccccc2)C(=O)O)cc1 (racemic) [Example 4, rac-2-Methyl-3-{4-[2-(5-methyl-2-thiophen-2-yl-oxazol-4-yl)-ethoxy]-phenyl}-2-phenoxypropionic acid] | 24 | 58.3 | 74 | – |
| Cc1oc(-c2ccccc2)nc1CCOc1ccc(C[C@@](C)(Oc2ccccc2)C(=O)O)cc1 [Example 2, (R)-3-{4-[2-(2-Phenyl-5-methyl-oxazol-4-yl)-ethoxy]-phenyl}-2-methyl-2-phenoxy-propionic acid] | 25 | -12.9 | 9 | – |
| Cc1oc(-c2ccccc2)nc1CCOc1ccc(C[C@](C)(Oc2ccccc2)C(=O)O)cc1 [Example 3, (S)-3-{4-[2-(2-Phenyl-5-methyl-oxazol-4-yl)-ethoxy]-phenyl}-2-methyl-2-phenoxy-propionic acid] | 67 | – | 85 | – |
| Cc1oc(-c2cccs2)nc1CCOc1ccc(C[C@@](C)(Oc2ccccc2)C(=O)O)cc1 [Example 5, (R)-2-Methyl-3-{4-[2-(5-methyl-2-thiophen-2-yl-oxazol-4-yl)-ethoxy]-phenyl}-2-phenoxypropionic acid] | 30 | 19.7 | 80 | – |
| Cc1oc(-c2cccs2)nc1CCOc1ccc(C[C@](C)(Oc2ccccc2)C(=O)O)cc1 [Example 6, (S)-2-Methyl-3-{4-[2-(5-methyl-2-thiophen-2-yl-oxazol-4-yl)-ethoxy]-phenyl}-2-phenoxypropionic acid] | 85 | 38.5 | 86 | – |
| Cc1oc(C2CCCCC2)nc1CCOc1ccc(CC(C)(Oc2ccccc2)C(=O)O)cc1 (stereo not drawn) [Example 7, 2-Methyl-3-(4-{2-[5-methyl-2-cyclohexyl-oxazol-4-yl]-ethoxy}-phenyl)-2-phenoxypropionic acid] | 39 | 42.1 | 86 | – |
| Cc1c(C)c2c(c(C)c1O)CCC(C)(COc1ccc(CC3SC(=O)NC3=O)cc1)O2 (stereo not drawn) [Troglitazone, reference compound] | – | – | – | huPPARα CTF Efficacy (huPPARα): 0% |
| CC(C)OC(=O)C(C)(C)Oc1ccc(C(=O)c2ccc(Cl)cc2)cc1 [fenofibrate, reference compound] | – | – | – | HDLc peak area (HuapoAI transgenic mice; 100 mg/kg oral daily 7 days, FPLC of pooled sera, vehicle 47-62 v-sec): 68-96 v-sec; mean percent increase of HDLc (HuapoAI transgenic mice; 100 mg/kg oral daily 7 days, FPLC, vs vehicle): 48%; mean elevation of total serum cholesterol (HuapoAI transgenic mice; [1]): 41%; mean reduction of triglycerides (HuapoAI transgenic mice; [1]): 37%; average triglycerides values (HuapoAI transgenic mice; 100 mg/kg oral daily 7 days, vehicle 60-80 mg/dl): 33 to 58 mg/dL; average total serum cholesterol values (HuapoAI transgenic mice; 100 mg/kg oral daily 7 days, vehicle 140-180 mg/dl): 190 to 280 mg/dL |
